Results taken from patent US20040072368A1, “Lipoprotein receptor” (priority 2002, published 2004).

Columns and labels:
[1] = target: T1, cell surface ATP synthase (Homo sapiens, UniProt P06576); assay: Cell surface ATP generation assay (ATP synthesis), HPLC/TLC; format: cell-based; conditions: 10 μg/ml free-apoA-I, 10 min, HepG2
T1 construct: endogenous in cells; host or cells: HepG2
Protocol: ^32Pi and ADP (panels A and B) or [α-32P] ATP (panels C, D, E and F) are added to the HepG2 cell medium as described in Experimental Procedures, and the cells are incubated for 10 min at 37° C. with 10 μg/ml apoA-I (panels B and D), 100 nM IF1 (panel E), or both IF1 […] and apoA-I at the same concentrations as above (panel F). Control experiments are performed with neither apo AI nor IF1 added into the cell medium (panel A and C). Supernatants are recovered and analysed by HPLCs.
Confluent HepG2 in 6-well plates are washed in DMEM, then incubated at 37° C. for 10 min in DMEM pH 6.6 with 0.1 μCi [α-32P] ATP for ADP generation assay, or with 0.1 μCi 32Pi and ADP (100 nM final) for ATP generation assay. Depending on the experiment, IF1 (100 nM final) or apoA-I (10 μg/ml final) are added in the reaction mixture. Supernatants are removed and analysed using two different systems: 1) by HPLC coupled to a radioactivity detector on a Whatman Partisphere 5 SAX column (Whatman International Ltd., UK) as described previously (13); calibration is done with radiolabelled nucleotides. 2) by thin layer chromatography in the solvent NaCl 2.4%/NH4OH/H2O/MeOH (12.5/15/27.5/50, v/v); radioactive spots are counted by liquid scintillation.

HepG2 cells [2] = assay: TG-HDL2 internalisation assay; format: cell-based, human; conditions: increasing free-apoA-I from 0.1 to 20 μg/ml, HepG2 or IHH cells, preliminary experiment
Protocol: (§1) Panel 1, 2 and 3. TG-HDL2 and LDL internalization by HepG2 cells. Cells are incubated for 10 min at 37° C. with 75 μg/ml of ^125I-TG-HDL2 (panels 1 and 3), TG-HDL2 labelled with ^3H-cholesteryl ester (panel 1 “chol”) or ^1251-LDL (panel 2). Alternatively, 10 μg/ml free-apoA-I (A, G), 100 nM ADP (B, H), both free-apoA-I and ADP at the same concentrations as above (C), 100 nM ATP (D), 0.2 U/ml apyrase (E), 100 nM EGF (F), or increasing concentrations of 2MeS-ADP (▪) and ATPγS (□) (panel 3) are added to the incubation medium. Results are expressed as the percentage of stimulation related to the value of internalisation obtained without addition of any compound (corresponding to a value of 400 ng TG-HDL2/mg of cell protein). The same experiments are performed on IHH cells with similar results (data not shown).
HepG2 cells are incubated for 10 min at 37° C. in DMEM pH 6.6 with 75 μg/ml of ^125I-TGHDL 2 and in the presence of increasing concentrations of IF, without (panel A) or with (panel B) free-apoA-I (10 μg/ml). Results are expressed as the percentage of stimulation as referred to the value of internalisation obtained without addition of any compound (corresponding to a value of 400 ng TG-HDL2/mg of cell protein).
Cells are washed three times and pre-incubated for 30 min at 37° C. in serum free DMEM. ^125I triglyceride rich-HDL2 (75 μg/ml) are added on the cells and incubated at 37° C. for various time. Depending on the experiment, free apolipoprotein A-I (10 μg/ml) or other compounds, are added to the incubation medium. At each incubation time, cells are washed with cold DMEM and the release of radioactive ligands associated to the cell surface is performed at 4° C., for 90 min in DMEM. The radioactivity internalised into the cells and the protein content is determined as in the competition assays. Non-specific internalisation is analysed in the presence of an excess of 600 μg/ml of HDL3. Results are expressed as the percentage of stimulation related to the value of internalisation obtained without addition of any compound. The same method is used for the measurement of LDL internalisation.

HepG2 cells [3] = assay: LDL internalisation assay; format: cell-based, human; conditions: 10 μg/ml free-apoA-I or 100 nM ADP, 10 min at 37° C.
Protocol: as §1
Cells are washed three times and pre-incubated for 30 min at 37° C. in serum free DMEM. ^125I triglyceride rich-HDL2 (75 μg/ml) are added on the cells and incubated at 37° C. for various time. […] The radioactivity internalised into the cells and the protein content is determined as in the competition assays. Non-specific internalisation is analysed in the presence of an excess of 600 μg/ml of HDL3. Results are expressed as the percentage of stimulation related to the value of internalisation obtained without addition of any compound. […]

T1 sequence (P06576 48-529): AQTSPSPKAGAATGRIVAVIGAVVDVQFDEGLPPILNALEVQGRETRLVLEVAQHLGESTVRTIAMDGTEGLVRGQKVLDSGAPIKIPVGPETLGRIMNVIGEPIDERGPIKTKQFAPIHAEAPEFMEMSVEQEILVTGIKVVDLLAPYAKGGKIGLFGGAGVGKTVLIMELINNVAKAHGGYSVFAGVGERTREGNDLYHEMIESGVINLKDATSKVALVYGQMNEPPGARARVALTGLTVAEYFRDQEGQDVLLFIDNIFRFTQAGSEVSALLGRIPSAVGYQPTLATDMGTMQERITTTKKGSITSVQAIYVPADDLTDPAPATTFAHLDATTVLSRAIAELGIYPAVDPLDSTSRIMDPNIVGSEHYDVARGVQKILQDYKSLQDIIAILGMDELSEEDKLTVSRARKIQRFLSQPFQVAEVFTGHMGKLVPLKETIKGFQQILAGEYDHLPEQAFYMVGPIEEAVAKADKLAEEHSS
T1 sequence (P25705 44-553 partner): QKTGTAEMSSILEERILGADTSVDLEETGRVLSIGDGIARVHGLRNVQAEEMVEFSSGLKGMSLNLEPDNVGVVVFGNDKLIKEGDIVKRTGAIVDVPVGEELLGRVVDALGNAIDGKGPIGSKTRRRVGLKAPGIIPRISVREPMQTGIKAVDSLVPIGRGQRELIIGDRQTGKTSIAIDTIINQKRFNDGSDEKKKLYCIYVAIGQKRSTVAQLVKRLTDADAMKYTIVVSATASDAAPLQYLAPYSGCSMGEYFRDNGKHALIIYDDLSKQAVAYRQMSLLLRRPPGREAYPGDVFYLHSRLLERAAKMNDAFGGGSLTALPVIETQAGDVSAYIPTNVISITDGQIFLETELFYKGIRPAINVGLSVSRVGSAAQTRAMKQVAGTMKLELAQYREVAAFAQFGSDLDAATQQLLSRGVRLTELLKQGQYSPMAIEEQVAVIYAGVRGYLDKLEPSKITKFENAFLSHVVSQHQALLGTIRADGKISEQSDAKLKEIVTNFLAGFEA
T1 sequence (P36542 26-298 partner): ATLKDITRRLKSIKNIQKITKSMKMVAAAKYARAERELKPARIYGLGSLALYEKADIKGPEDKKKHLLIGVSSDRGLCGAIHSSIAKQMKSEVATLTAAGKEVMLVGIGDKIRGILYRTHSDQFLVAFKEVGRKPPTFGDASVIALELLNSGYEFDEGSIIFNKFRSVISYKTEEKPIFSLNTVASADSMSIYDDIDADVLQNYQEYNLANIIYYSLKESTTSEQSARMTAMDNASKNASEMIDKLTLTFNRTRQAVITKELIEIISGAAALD
T1 sequence (P30049 23-168 partner): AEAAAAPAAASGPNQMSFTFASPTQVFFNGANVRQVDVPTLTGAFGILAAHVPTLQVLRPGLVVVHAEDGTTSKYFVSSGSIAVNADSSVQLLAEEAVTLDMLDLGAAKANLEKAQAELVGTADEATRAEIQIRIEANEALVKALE
T1 sequence (P56381 2-51 partner limits assumed): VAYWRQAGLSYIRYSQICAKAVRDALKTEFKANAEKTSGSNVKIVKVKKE

## free-apoA-I: major apoprotein of HDL, single polypeptide chain of 243 amino acid residues, isolated from HDL3 by ion-exchange chromatography
[1]
  ATP synthesis from ADP plus 32Pi: no synthesis of ATP is detected
HepG2 cells [2]
  radioactivity internalised into the cells (125I-labeled TG-HDL2): increased
HepG2 cells [3]
  stimulation of endocytosis of 125I-labeled LDL: no stimulation
